{"source": "patent US20210253582A1", "about": "“SALTS AND SOLID FORMS AND PROCESSES OF PREPARING A PI3K INHIBITOR” (Incyte Corporation, priority 2020, published 2021)", "target": "T1, PI3K (Homo sapiens, UniProt O00329)", "T1 construct": "purchased Millipore (Bedford, Mass.)", "T1 sequence (O00329 whole entry)": "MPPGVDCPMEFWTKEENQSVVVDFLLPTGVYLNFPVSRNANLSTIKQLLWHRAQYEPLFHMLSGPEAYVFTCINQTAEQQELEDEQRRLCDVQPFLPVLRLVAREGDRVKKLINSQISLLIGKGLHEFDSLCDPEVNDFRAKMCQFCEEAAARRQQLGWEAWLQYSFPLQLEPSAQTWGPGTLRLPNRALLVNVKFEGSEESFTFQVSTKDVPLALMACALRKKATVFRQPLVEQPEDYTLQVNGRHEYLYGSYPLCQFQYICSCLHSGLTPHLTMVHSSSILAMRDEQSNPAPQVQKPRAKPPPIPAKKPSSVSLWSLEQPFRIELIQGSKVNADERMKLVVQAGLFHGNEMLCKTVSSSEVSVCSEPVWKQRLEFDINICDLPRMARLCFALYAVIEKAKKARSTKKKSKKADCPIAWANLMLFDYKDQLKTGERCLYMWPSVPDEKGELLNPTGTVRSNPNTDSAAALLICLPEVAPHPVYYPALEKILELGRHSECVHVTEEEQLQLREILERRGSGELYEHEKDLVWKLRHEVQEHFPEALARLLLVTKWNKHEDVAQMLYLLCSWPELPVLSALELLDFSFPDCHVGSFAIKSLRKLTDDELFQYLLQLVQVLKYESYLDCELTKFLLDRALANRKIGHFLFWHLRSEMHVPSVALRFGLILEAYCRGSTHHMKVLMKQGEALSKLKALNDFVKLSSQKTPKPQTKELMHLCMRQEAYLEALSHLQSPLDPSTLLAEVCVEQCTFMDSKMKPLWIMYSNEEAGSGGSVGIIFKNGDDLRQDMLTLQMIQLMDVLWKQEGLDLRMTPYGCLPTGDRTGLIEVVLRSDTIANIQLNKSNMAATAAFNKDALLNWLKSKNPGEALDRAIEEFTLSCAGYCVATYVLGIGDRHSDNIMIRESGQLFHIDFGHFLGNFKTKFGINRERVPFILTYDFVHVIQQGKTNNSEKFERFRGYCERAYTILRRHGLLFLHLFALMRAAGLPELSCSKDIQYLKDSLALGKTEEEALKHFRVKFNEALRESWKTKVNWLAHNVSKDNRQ", "T1 sequence (P27986 whole entry partner)": "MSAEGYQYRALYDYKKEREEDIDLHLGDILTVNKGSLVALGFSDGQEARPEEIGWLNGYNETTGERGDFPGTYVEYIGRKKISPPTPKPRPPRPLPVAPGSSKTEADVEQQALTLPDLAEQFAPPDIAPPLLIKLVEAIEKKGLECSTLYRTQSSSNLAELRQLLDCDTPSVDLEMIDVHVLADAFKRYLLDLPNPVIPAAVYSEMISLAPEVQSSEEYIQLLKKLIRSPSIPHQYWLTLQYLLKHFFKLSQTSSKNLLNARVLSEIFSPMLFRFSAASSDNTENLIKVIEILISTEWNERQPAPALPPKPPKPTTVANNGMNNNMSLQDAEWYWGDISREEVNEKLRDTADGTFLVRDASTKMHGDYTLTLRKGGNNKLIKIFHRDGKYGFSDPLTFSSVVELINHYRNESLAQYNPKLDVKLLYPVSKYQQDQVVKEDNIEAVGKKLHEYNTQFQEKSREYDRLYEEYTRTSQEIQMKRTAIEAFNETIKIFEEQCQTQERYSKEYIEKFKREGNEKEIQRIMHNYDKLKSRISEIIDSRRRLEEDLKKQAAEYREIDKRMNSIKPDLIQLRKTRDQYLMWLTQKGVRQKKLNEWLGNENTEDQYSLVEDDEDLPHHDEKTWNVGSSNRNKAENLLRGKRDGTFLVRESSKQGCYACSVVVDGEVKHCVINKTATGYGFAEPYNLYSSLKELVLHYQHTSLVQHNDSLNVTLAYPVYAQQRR", "assay": "PI3K enzyme assays (at least one assay described herein)", "format": "biochemical", "conditions": "according to at least one assay described herein; assay not specified", "text": "PI3-Kinase luminescent assay kit including lipid kinase substrate, D-myo-phosphatidylinositol 4,5-bisphosphate (PtdIns(4,5)P2)D (+)-sn-1,2-di-O-octanoylglyceryl, 3-O-phospho linked (PIP2), biotinylated I(1,3,4,5)P4, PI(3,4,5)P3 Detector Protein is purchased from Echelon Biosciences (Salt Lake City, Utah). AlphaScreen™ GST Detection Kit including donor and acceptor beads was purchased from PerkinElmer Life Sciences (Waltham, Mass.). PI3Kδ (p110δ/p85α) is purchased from Millipore (Bedford, Mass.). ATP, MgCl2, DTT, EDTA, HEPES and CHAPS are purchased from Sigma-Aldrich (St. Louis, Mo.).\nThe kinase reaction are conducted in 384-well REMP plate from Thermo Fisher Scientific in a final volume of 40 μL. Inhibitors are first diluted serially in DMSO and added to the plate wells before the addition of other reaction components. The final concentration of DMSO in the assay is 2%. The PI3K assays are carried out at room temperature in 50 mM HEPES, pH 7.4, 5 mM MgCl2, 50 mM NaCl, 5 mM DTT and CHAPS 0.04%. […] The activity of the product is determined on Fusion-alpha microplate reader (Perkin-Elmer). […]\nThe kinase reactions are conducted in clear-bottom 96-well plate from Thermo Fisher Scientific in a final volume of 24 μL. […] After the plate sealing, the radioactivity of the product is determined by scintillation counting on Topcount (Perkin-Elmer). […]", "data": [{"smiles": "CCOc1c([C@H](C)n2nc(C)c3c(N)ncnc32)cc(Cl)c(F)c1[C@@H]1CNC(=O)O1", "note": "[compound of Formula I, (R)-5-(3-((S)-1-(4-amino-3-methyl-1H-pyrazolo[3,4-d]pyrimidin-1-yl)ethyl)-5-chloro-2-ethoxy-6-fluorophenyl)oxazolidin-2-one]", "values": [{"measurement": "PI3K inhibition (qualitative statement)", "value": "found to be PI3K inhibitors"}]}]}
